The values that follow come from US5387599A, “Triazoles, their production and use” (Takeda Chemical Industries, Ltd., priority 1990, dated 1995).

Structures are written as SMILES. Structures can show the parent of a compound that is named as a salt.

Assay [1] relates to Aspergillus fumigatus IFO 6344. Put plainly: paper disk growth inhibition on agar (antifungal spectrum). The note with it: IFO6344, 48 h, medium A (yeast nitrogen base agar, pH 7.0), 1000 μg/ml, 8 mm disk, 2 days, 28° C., read-out: Diameter of growth inhibition zone. In kind it is cell-based. As to the method:
(§1) Evaluation for fungicidal acitivity of the compound (I) was carried out by the following method.
(§2) A paper disk (manufactured by TOYO SEISAKUSHO, 8mm in diameter) dipped into a methanol solution containing the compound (I) in an amount of 1000 μg/ml was placed on an agar plate containing various fungi. After the cultivation of said fungi for two days at 28° C., mesurement was made to the diameter of a growth inhibiton zone produced around the paper disk. The media used for the evaluation are as follows:
(§3) A: Yeast nitrogen base agar (pH 7.0)

For assay [2], the system named is Aspergillus niger IFO 4066. Described as above. The class given is cell-based. The note with it: IFO4066, 48 h, medium A (yeast nitrogen base agar, pH 7.0), 1000 μg/ml, 8 mm disk, 2 days, 28° C., read-out: Diameter of growth inhibition zone. As to the method: as §1, §2, §3
Assay [3] relates to Candida albicans IFO 0583. The assay is described as above. In kind it is cell-based. As to conditions: IFO0583, 48 h, medium A (yeast nitrogen base agar, pH 7.0), 1000 μg/ml, 8 mm disk, 2 days, 28° C., read-out: Diameter of growth inhibition zone. As to the method: as §1, §2, §3
In a further assay the test system is Candida utilis IFO 0619. The description is as above. In kind it is cell-based. The note with it: Williopsis jadinii, IFO0619, 48 h, medium A (yeast nitrogen base agar, pH 7.0), 1000 μg/ml, 8 mm disk, 2 days, 28° C., read-out: Diameter of growth inhibition zone. As to the method:
as §1, §2, §3

Assay [4] deals with Cryptococcus neoformans IFO 0410. Described as above. The class given is cell-based. As to conditions: IFO0410, 48 h, medium A (yeast nitrogen base agar, pH 7.0), 1000 μg/ml, 8 mm disk, 2 days, 28° C., read-out: Diameter of growth inhibition zone. As to the method: as §1, §2, §3
Assay [5] relates to Microsporum gypseum IFO 6075. The assay is described as above. The note with it: Nannizzia gypsea, IFO6075, 48 h, medium B (Sabouraud's agar), 1000 μg/ml, 8 mm disk, 2 days, 28° C., read-out: Diameter of growth inhibition zone. The class given is cell-based. As to the method:
as §1
(§4) A paper disk (manufactured by TOYO SEISAKUSHO, 8mm in diameter) dipped into a methanol solution containing the compound (I) in an amount of 1000 μg/ml was placed on an agar plate containing various fungi. After the cultivation of said fungi for two days at 28° C., mesurement was made to the diameter of a growth inhibiton zone produced around the paper disk.

In assay [6] the test system is Trichophyton methagrophytes IFO 7522. The description is as above. The class given is cell-based. The note with it: IFO7522, 48 h, medium B (Sabouraud's agar), 1000 μg/ml, 8 mm disk, 2 days, 28° C., read-out: Diameter of growth inhibition zone. As to the method: as §1, §4
In assay [7] the test system is Trichophyton rubrum IFO 6467. Described as above. In kind it is cell-based. As to conditions: IFO6467, 48 h, medium B (Sabouraud's agar), 1000 μg/ml, 8 mm disk, 2 days, 28° C., read-out: Diameter of growth inhibition zone. As to the method:
as §1, §4

Another assay deals with Erysiphe graminis. In words: preventive effect against powdery mildew of barley (Experimental Method 1). In kind it is in vivo, Erysiphe graminis (on barley). As to conditions: 200 ppm; barley seedling, 8 days after inoculation. As to the method:
Experimental Method 1 Experiment for preventive effect against powdery mildew of barley (Erysiphe graminis) […] The resultant solution was diluted with water to obtain a predetermined concentration of the active ingredient. To this diluted solution was added a sticker Dyne®[manufactured by Takeda Chemical Industries, Ltd., and including polyoxyethylenenonylphenylether (10 wt. %) and potassium ligninsulfonate (10 wt. %)] in a ratio of 0.03 wt. % (end concentration) to prepare a spray. Thus obtained spray was sprayed to a barley seedling (about one week seeding) such that the spray was dripped from the seedling. After air-drying, the spore of susceptible leaf with Erysiphe graminis was forcibly deposited for inoculation. The spore was maintained at an artificial inoculation chamber at a temperature of 20° C. for 8 days after the inoculation. Thereafter, the area rate of lesion was examined to represent the preventive value by the following coefficient. […] Preventive value 2: area rate of lesion 11-20% Preventive value 1: area rate of lesion 21-50% Preventive value 0: area rate of lesion 51% or more

Another assay has as its system Pyricularia oryzae. In kind it is in vivo, Pyricularia oryzae (on rice). The note with it: 200 ppm; rice seedling, 6 days after inoculation.
The test system of another assay is Candida albicans. In words: protective effect against experimental infection in mice. As to conditions: in Mus musculus, 168 h.

Usually zone of inhibition stands for the size of the clear area around the sample on an inoculated plate. Broadly, the ED50 is the midpoint of the dose-response relation. Consider `CCN(CC)C(=S)S[C@H](C)[C@](O)(Cn1cncn1)c1ccc(F)cc1F` (racemic) [Compound 1, [(2RS,3RS)-3-(2,4-difluorophenyl)-3-hydroxy-4-(1H-1,2,4-triazol-1-yl)-2butyl] N,N-diethyldithiocarbamate], for which the zone of inhibition at 1000 µg/mL in [1] was determined as 45 mm; in assay [2], 28 mm; in assay [3] it was 40 mm; with Candida utilis IFO 0619, 32 mm; in assay [4], 35 mm; in assay [5], 40 mm. In addition, the zone of inhibition at 1000 µg/mL in assay [6] was 40 mm; in [7], 35 mm. Further, the “Preventive Value for Erysiphe graminis” value in the assay with Erysiphe graminis was 3 (area rate of lesion 0-10%). Besides, the “Preventive Value for Pyricularia oryzae” value with Pyricularia oryzae is listed as 3 (area rate of lesion 0-14%). Moreover, it took a dose of 2 mg/kg to reach the 50% effect level with Candida albicans (sc) (ED50).
Consider `Cc1cccc(N(C)C(=S)S[C@H](C)[C@](O)(Cn2cncn2)c2ccc(F)cc2F)c1` [Compound 9, [(2R,3R)-3-(2,4-difluorophenyl)-3-hydroxy-4-(1H,1,2,4-triazol-1-yl)-2-butyl] N-methyl-N-(3-methylphenyl) dithiocarbamate hydrochloride], for which the zone of inhibition at 1000 µg/mL in [1] worked out at 15 mm; in [2] it was 13 mm; in assay [3], 25 mm; with Candida utilis IFO 0619 it was 20 mm; in assay [4], 20 mm; in assay [5], 20 mm. The zone of inhibition at 1000 µg/mL in assay [6] worked out at 15 mm; in [7], 30 mm. This molecule yielded a median effective dose (ED50) with Candida albicans (po) of 2 mg/kg.
As to `CCN(CC)C(=S)S[C@H](C)[C@](O)(Cn1cncn1)c1ccc(F)cc1F.Cl` [Compound 2, [(2R,3R)-3-(2,4-difluorophenyl)-3-hydroxy-4-(1H-1,2,4-triazol-1-yl)-2-butyl] N,N-diethyldithiocarbamate hydrochloride], the zone of inhibition at 1000 µg/mL is 50 mm in assay [1]; 35 mm in assay [2]; 30 mm in assay [3]; 40 mm in the assay with Candida utilis IFO 0619; 30 mm in assay [4]; 48 mm in assay [5]. The zone of inhibition at 1000 µg/mL stood at 48 mm in assay [6] and 40 mm in [7]. In addition, in the assay with Erysiphe graminis, the “Preventive Value for Erysiphe graminis” value was 3 (area rate of lesion 0-10%). The “Preventive Value for Pyricularia oryzae” value with Pyricularia oryzae is recorded as 3 (area rate of lesion 0-14%). This molecule also returned an ED50 in the assay on Candida albicans (po) of 0.5 mg/kg.
